Target: T1, hTLR3 (Homo sapiens, UniProt O15455)
T1 construct: expressed in transfected cells; host or cells: HEK-Blue (HEK 293) hTLR3 reporter cells
T1 sequence (O15455 24-904): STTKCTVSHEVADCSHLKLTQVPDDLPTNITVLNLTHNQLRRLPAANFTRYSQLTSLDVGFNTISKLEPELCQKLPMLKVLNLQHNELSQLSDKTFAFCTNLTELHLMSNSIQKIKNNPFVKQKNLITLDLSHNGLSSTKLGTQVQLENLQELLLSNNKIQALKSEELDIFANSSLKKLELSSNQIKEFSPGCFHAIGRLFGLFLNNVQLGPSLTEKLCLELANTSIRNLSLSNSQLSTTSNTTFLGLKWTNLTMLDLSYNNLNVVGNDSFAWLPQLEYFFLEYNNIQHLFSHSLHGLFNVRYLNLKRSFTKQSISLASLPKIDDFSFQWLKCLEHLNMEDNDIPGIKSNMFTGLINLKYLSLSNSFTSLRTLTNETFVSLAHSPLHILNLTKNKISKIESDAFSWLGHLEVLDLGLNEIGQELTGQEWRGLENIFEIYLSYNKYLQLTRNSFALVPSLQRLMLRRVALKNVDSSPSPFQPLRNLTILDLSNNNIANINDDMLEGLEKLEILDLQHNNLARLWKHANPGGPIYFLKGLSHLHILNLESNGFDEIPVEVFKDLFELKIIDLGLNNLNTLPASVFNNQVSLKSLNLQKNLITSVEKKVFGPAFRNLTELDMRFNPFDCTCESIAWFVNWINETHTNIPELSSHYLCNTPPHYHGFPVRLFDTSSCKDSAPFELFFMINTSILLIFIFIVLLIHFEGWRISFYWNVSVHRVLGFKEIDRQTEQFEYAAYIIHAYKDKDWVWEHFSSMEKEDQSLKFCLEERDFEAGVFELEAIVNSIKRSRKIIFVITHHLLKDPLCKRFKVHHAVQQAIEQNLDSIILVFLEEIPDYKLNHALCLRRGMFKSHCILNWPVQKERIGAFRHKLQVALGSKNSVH
Assay: HEK-Blue hTLR3 SEAP reporter assay
Format: cell-based
Details: 10 μg/mL poly I:C LMW, GBZ 50 μM
Method: FIG. 1: Guanabenz inhibits TLR3 and TLR9 activation in mouse Flt3-L DCs and human blood pDCs. A) Sorted bone marrow derived Flt3L-DCs were activated for 6 h with 10 μg/mL poly I:C LMW (TLR3 in DC1) or 1 μM ODN 1585 (TLR9 in pDCs). GBZ was added at 50 μM and inhibited IFN-β and Interleukin-6 (IL-6) production in activated cells. B) hTLR4, hTLR3, hTLR9 and hTLR7 expressed in the reporter HEK-Blue™ cells are inhibited by GBZ. TLR-expressing HEK-Blue™ cells were respectively activated with 100 ng/mL LPS, 10 μg/mL poly I:C LMW, 2.5 μM ODN 2006 or 5 μg/mL imiquimod, respectively. GBZ was added at 50 μM. TLR activity was measured indirectly through SEAP activity as absorbance at 405 nm. […] Protein concentration of IFN-α and TNF-α secreted were measured at the indicated time points or at 16 h. […]
Given the efficiency of GBZ on mouse TLR3 and TLR9, we turned to human TLRs, in order to extend the relevance of our observations. GBZ-mediated inhibition was first evaluated on NF-kB signaling by monitoring secreted alkaline phosphatase (SEAP) reporter levels in HEK-293 cells expressing TLR3, TLR4, TLR7, TLR9 (FIG. 1B). […] The functionality of the TLR9 transduction pathway was next evaluated by using phospho-flow detection of 40S ribosomal protein S6 (rpS6) phosphorylation, a well characterized early signaling event down-stream of TLR activation by LPS or viruses.

Q: Which “TLR3-dependent activation of the SEAP reporter” value does the source give for `NC(N)=N/N=C/c1c(Cl)cccc1Cl` [GBZ, 2-(2,6-dichlorobenzylidene)-hydrazinecarboximidamide] here?
A: inhibited
